Where two headings read alike, the source gives them in different places.
Assays:
[1] = system: human cytomegalovirus (HCMV) (AD-169); experiment: microbe, parasite or virus in culture; assay type: cell-based; settings: read-out: EC50 HCMV (AD-169)
[2] = system: human cytomegalovirus (HCMV) (Davis); experiment: microbe, parasite or virus in culture; assay type: cell-based; settings: read-out: EC50 HCMV (Davis)
[3] = system: varicella-zoster virus (VZV) TK+ (OKA); experiment: microbe, parasite or virus in culture; assay type: cell-based; settings: read-out: EC50 VZV TK+ (OKA)
[4] = system: varicella-zoster virus (VZV) TK− (07/1); experiment: microbe, parasite or virus in culture; assay type: cell-based; settings: Human alphaherpesvirus 3, HEL, read-out: EC50 VZV TK− (07/1)
[5] = system: herpes simplex virus 1 (HSV-1) (KOS); experiment: microbe, parasite or virus in culture; assay type: cell-based; settings: read-out: EC50 HSV-1 (KOS)
HSV-2 (G) = experiment: microbe, parasite or virus in culture; assay type: cell-based, herpes simplex virus 2; settings: read-out: EC50 HSV-2 (G)
HSV-1 (KOS ACV) TK− = experiment: microbe, parasite or virus in culture; assay type: cell-based, herpes simplex virus 1
Vaccinia Virus = experiment: microbe, parasite or virus in culture; assay type: cell-based; settings: read-out: EC50 Vaccinia Virus
Feline Herpes Virus = experiment: organism not typed; assay type: cell-based; settings: read-out: EC50 Feline Herpes Virus
[6] = system: HSV-1, HSV-2, HSV-1 (TK−), VV, FHV; assay type: cell-based
in vitro = settings: human
HEL cells = settings: read-out: Cytotoxicity CC50; concentration reducing cell growth by 50%; HCMV/VZV table
[7] = Human betaherpesvirus 5, AD169, HEL
[8] = Human alphaherpesvirus 1, read-out: EC50 HSV-1 (KOS ACV) TK−
[9] = read-out: EC50 HSV-1 (KOS ACV) TK−

Compound | EC50 [1, 7] [µM] | EC50 ([2]; Human betaherpesvirus 5, HEL) [µM] | EC50 ([3]; Human alphaherpesvirus 3, HEL) [µM] | EC50 [4] [µM] | EC50 ([5]; Human alphaherpesvirus 1, HEL) [µM] | EC50 (HSV-2 (G); Human alphaherpesvirus 2, HEL) [µM] | EC50 (HSV-1 (KOS ACV) TK−; [8]) [µM] | EC50 (Vaccinia Virus; Orthopoxvirus vaccinia, HEL) [µM] | EC50 (Feline Herpes Virus) [µM] | Cytotoxicity MCC (HEL cell cultures; human) [µM] | CC50 at 3 days (in vitro) [µM] | further results
CC(=O)OCC(=CCP(=O)(OCOC(=O)C(C)(C)C)OCOC(=O)C(C)(C)C)COc1cc(N)nc(N)n1 (mixture of isomers) [Compound (4), [[(Z/E)-3-(acetoxymethyl)-4-(2,6-diaminopyrimidin-4-yl)oxy-but-2′-enyl]-(2,2-dimethylpropanoyloxymethoxy)phosphoryl]oxymethyl 2,2-dimethylpropanoate] | 8.56 | 4.06 | 0.14 | 0.12 | 0.6 | 1.1 | 0.6 | 2.9 | > 100 | 100 | 2.02 | activity level against HSV-1, HSV-2, HSV-1 (TK−), VV, FHV [6]: micromolar and sub-micromolar activities
CCCCCCCCCCCCCCCCOCCCOP(=O)(CC=C(COC(C)=O)COc1cc(Cl)nc(N)n1)OCOC(=O)OC(C)C (mixture of isomers) [Compound (8), [(E/Z)-2′-[(2-amino-6-chloro-pyrimidin-4-yl)oxymethyl]-4-[3-hexadecoxypropoxy(isopropoxycarbonyloxymethoxy)phosphoryl]but-2′-enyl]acetate] | – | – | – | – | – | – | – | – | > 100 | – | – | EC50 [1]: > 20 µM; EC50 [2]: 13.1 µM; EC50 [3]: 48.9 µM; EC50 [5]: > 100 µM; EC50 (HSV-2 (G)): > 100 µM; EC50 (HSV-1 (KOS ACV) TK−; [9]): > 100 µM; EC50 (Vaccinia Virus): > 100 µM; Cytotoxicity MCC (HEL cell cultures): 100 µM; CC50 (HEL cells): 5.01 µM
Nc1nc2c(ncn2COCCO)c(=O)[nH]1 [Acyclovir, reference compound] | 0.4 | 250 | – | – | – | – | – | > 100 | – | – | – | CC50 (in vitro): 134 ± 10 µM; CC50 (in vitro; Cytotoxicity CC50): > 100 µM
O=c1[nH]c(=O)n([C@H]2C[C@H](O)[C@@H](CO)O2)cc1/C=C/Br [Brivudine, reference compound] | 0.08 | 250 | 0.01 | 117 | – | – | – | 22 | – | >100 | – | CC50 (in vitro): 339 µM; CC50 (in vitro; Cytotoxicity CC50): > 100 µM
CC(C)(C)C(=O)OCOP(=O)(C/C=C/COc1cc(N)nc(N)n1)OCOC(=O)C(C)(C)C [Compound (1), [[(E)-4-(2,6-diaminopyrimidin-4-yl)oxybut-2′-enyl]-(2,2-dimethylpropanoyloxymethoxy)phosphoryl]oxymethyl 2,2-dimethylpropanoate] | 44.7 | 44.7 | 2.04 | 2.32 | 13.4 | 13.4 | 13.4 | 32.5 | > 100 | >100 | 5.1 | activity level against HSV-1, HSV-2, HSV-1 (TK−), VV, FHV [6]: micromolar and sub-micromolar activities
CCCCCCCCCCCCCCCCOCCCOP(=O)(C/C=C/COc1cc(N)nc(N)n1)OCOC(=O)OC(C)C (stereo not shown) [Compound (2), [[(E)-4-(2,6-diaminopyrimidin-4-yl)oxybut-2′-enyl]-(3-hexadecoxypropoxy)phosphoryl]oxymethyl isopropyl carbonate] | – | – | – | – | – | – | – | – | > 100 | – | – | EC50 [1]: 7.08 µM; EC50 [2]: 7.26 µM; EC50 [3]: 0.17 µM; EC50 [5]: > 100 µM; EC50 (HSV-2 (G)): > 100 µM; EC50 (HSV-1 (KOS ACV) TK−; [9]): > 100 µM; EC50 (Vaccinia Virus): > 100 µM; Cytotoxicity MCC (HEL cell cultures): >100 µM; CC50 (HEL cells): 14.5 µM
CC(C)OC(=O)OCOP(=O)(C/C=C/COc1cc(N)nc(N)n1)OCOC(=O)OC(C)C [Compound (3), [[(E)-4-(2,6-diaminopyrimidin-4-yl)oxybut-2′-enyl]-(isopropoxycarbonyloxymethoxy)phosphoryl]oxymethyl isopropyl carbonate] | 44.7 | 36.6 | 0.86 | 1.25 | 3.75 | 1.85 | 5.75 | > 100 | > 100 | >100 | 99 | activity level against HSV-1, HSV-2, HSV-1 (TK−), VV, FHV [6]: micromolar and sub-micromolar activities
CC(=O)OC/C(=C\CP(=O)(OCOC(=O)OC(C)C)OCOC(=O)OC(C)C)COc1cc(N)nc(N)n1 [Compound (6), [(Z)-4-[bis(isopropoxycarbonyloxymethoxy)phosphoryl]-2-[(2,6-diaminopyrimidin-4-yl)oxymethyl]but-2-enyl]acetate] | > 20 | 49.7 | 0.089 | 0.22 | 0.6 ± 0.2 | 0.35 ± 0.05 | 0.4 | 4.1 ± 2.4 | > 100 | >100 | 15.4 | –
CC(C)(C)C(=O)OCOP(=O)(/C=C/COc1cc(N)nc(N)n1)OCOC(=O)C(C)(C)C [Compound (9), [[(E)-3-(2,6-diaminopyrimidin-4-yl)oxyprop-1-enyl]-(2,2-dimethyl-propanoyloxymethoxy)phosphoryl]oxymethyl 2,2-dimethylpropanoate] | > 100 | > 100 | 76.5 | > 100 | > 100 | > 100 | > 100 | > 100 | > 100 | >100 | – | –
CC(C)(C)C(=O)OCOP(=O)(CC/C=C/COc1cc(N)nc(N)n1)OCOC(=O)C(C)(C)C [Compound (10), [[(E)-5-(2,6-diaminopyrimidin-4-yl)oxypent-3-enyl]-(2,2-dimethyl-propanoyloxymethoxy)phosphoryl]oxymethyl 2,2-dimethylpropanoate] | > 100 | > 100 | 34.2 | 24.5 | > 100 | > 100 | > 100 | > 100 | > 100 | 100 | – | –
C/C(=C\CP(=O)(OCOC(=O)C(C)(C)C)OCOC(=O)C(C)(C)C)COc1cc(N)nc(N)n1 [Compound (11), [[(E)-4-(2,6-diaminopyrimidin-4-yl)oxy-3-methyl-but-2-enyl]-(2,2-dimethyl-propanoyloxymethoxy)phosphoryl]oxymethyl 2,2-dimethylpropanoate] | > 100 | > 100 | 51.5 | 49.3 | > 100 | > 100 | 51.5 | 49.3 | > 100 | >100 | – | –
CC(C)(C)C(=O)OCOP(=O)(CCCCOc1cc(N)nc(N)n1)OCOC(=O)C(C)(C)C [Compound (12)] | 44.7 | > 20 | 11.3 | 11 | 39.5 | 39.5 | 42 | > 100 | > 100 | >100 | 54.9 | –
Nc1nc(O)c2ncn(COC(CO)CO)c2n1 [Ganciclovir, reference compound] | – | – | – | – | – | 0.06 | – | > 100 | 1.4 | >100 | – | CC50 (in vitro; Cytotoxicity CC50): > 100 µM
[(E/Z)-2-[[2-[bis(tert-butoxycarbonyl)amino]-6-methoxy-pyrimidin-4-yl]oxymethyl]-4-[3-hexadecoxypropoxy(isopropoxycarbonyloxymethoxy)phosphoryl]but-2′-enyl]acetate [Compound (7)] | – | – | – | – | – | – | – | – | > 100 | – | – | EC50 [1]: > 20 µM; EC50 [2]: 8.94 µM; EC50 [3]: > 20 µM; EC50 [5]: > 100 µM; EC50 (HSV-2 (G)): > 100 µM; EC50 (HSV-1 (KOS ACV) TK−; [9]): > 100 µM; EC50 (Vaccinia Virus): > 100 µM; Cytotoxicity MCC (HEL cell cultures): 100 µM; CC50 (HEL cells): 1.29 µM
